Patent US5538997A, “2,4-diamino-3-hydroxycarboxylic acid derivatives” (Sandoz Ltd., priority 1993, dated 1996)

Legend:
[1] = tested on: HIV-1 (HTLV IIIB)-induced cytopathic effect in MT4-cells; experiment: Cellular assay: inhibition of HIV-1-induced cytopathic effect in MT4-cells (MTT); format: cell-based; conditions: Human immunodeficiency virus 1, read-out: IC50 in the cellular assay (virus-inhibitory concentration)
Experimental: Inhibition of the HIV-1 (HTLV IIIB)-induced cytopathic effect is measured in MT4-cells as described in the literature (R. Pauwels et al, J. Virol. Meth. 20 309-321 [1988]). Briefly, an HTLV-1 transformed T4 cell line, MT4, which has been shown previously to be highly permissive to HIV infection, serves as a target cell line. Inhibition of HIV-induced cytopathic effect is used as the end point. The viability of both HIV- and mock-infected cells is assessed spectrophotometrically via the in situ-reduction of 3-(4,5-dimethylthiazol-2-yl)-2,5-diphenyltetrazolium bromide (MTT). The comparison of the effects of various concentrations of the agent on HIV- versus mock-infected cells allows the determination of cytotoxic (TC50) and virus-inhibitory (IC50) concentrations.

renin = target: T1, renin (Homo sapiens, UniProt P00797); experiment: Inhibition of renin (specificity); format: biochemical
T1 sequence (P00797 67-406): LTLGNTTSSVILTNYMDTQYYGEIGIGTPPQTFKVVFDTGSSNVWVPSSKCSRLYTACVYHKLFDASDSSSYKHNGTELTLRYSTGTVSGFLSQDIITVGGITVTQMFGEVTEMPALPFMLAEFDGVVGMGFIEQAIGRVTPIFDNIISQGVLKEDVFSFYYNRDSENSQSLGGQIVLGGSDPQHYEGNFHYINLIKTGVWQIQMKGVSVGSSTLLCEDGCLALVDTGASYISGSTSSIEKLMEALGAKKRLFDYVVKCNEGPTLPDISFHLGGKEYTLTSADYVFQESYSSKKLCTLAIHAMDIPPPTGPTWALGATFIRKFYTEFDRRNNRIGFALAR

[2] = target: recombinant HIV-1-proteinase (Human immunodeficiency virus type 1 group M subtype B, UniProt P04585); experiment: biochemical
Experimental: (§1) 1. Assay of peptide cleavage by HIV-proteinase
(§2) Inhibition of HIV-proteinase is measured as described in the literature: A. Richards et al., J. Biol. Chem. 265, 773-7736 (1990) and L. H. Philip et al., Biochem. Biophys. Res. Comun. 171,439-444 (1990). Briefly the peptide H-Lys-Ala-Arg-Val-Leu-Nph-Glu- Ala-Nle-NH2 (where Nph is p-nitrophenylalanine and Nle is norleucine) is used as substrate for recombinant HIV-1- and HIV-2-proteinase. Cleavage occurs between the Leu and Nph residues. The reaction is followed spectrophotometrically by the decrease in extinction at 300 nm which is observed upon cleavage.

cathepsin D = cathepsin D (Homo sapiens, UniProt P07339); experiment: Inhibition of cathepsin D (specificity); format: biochemical
[3] = Assay of oral bioavailability in mice; parameters: species or system Female Balb/c mice; conditions: mouse, in vivo
Experimental: As is known from the literature, peptide based drugs characteristically show poor oral bioavailability. Since with HIV patients long term medication with proteinase inhibitors is anticipated, it is important that a useful drug be orally bioavailable. This is one of the main obstacles in the development of effective drugs in this peptidic structural class. […] This can be shown e.g. in the following test:
For peroral administration, a solution of the test substance (25 mg/ml) in a suitable solvent such as Cremophor RH40^R /Maisine^R /propylene glycol / ethanol (38/32/15/15) is prepared. Female Balb/c mice are fasted for 24 hours prior to the start, and throughout the experiment water is given ad libitum. At various times following drug administration, blood samples are obtained by sacrificing animals under anaesthesia by cutting the vena jugularis, followed by cervical dislocation. Samples are collected in heparinized tubes (typically 0.4-0.6 ml). For sample analysis solid phase extraction and HPLC are used. Drug concentration in the samples is calculated by least-squares linear regression analysis of the peak area ratio (inhibitor/internal standard) of spiked blood standards versus concentration. From the concentration versus time data, the "Area Under the Curve" (AUC) value is calculated by the trapezoidal rule.

[4] = target: T2, recombinant HIV-2-proteinase (Human immunodeficiency virus type 2 subtype A, UniProt P04584); experiment: Assay of peptide cleavage by HIV-proteinase (HIV-2); format: biochemical; conditions: substrate H-Lys-Ala-Arg-Val-Leu-Nph-Glu-Ala-Nle-NH2
T2 construct: recombinant HIV-1- and HIV-2-proteinase
Experimental: as §1, §2

cathepsin D, sequence (P07339 65-412): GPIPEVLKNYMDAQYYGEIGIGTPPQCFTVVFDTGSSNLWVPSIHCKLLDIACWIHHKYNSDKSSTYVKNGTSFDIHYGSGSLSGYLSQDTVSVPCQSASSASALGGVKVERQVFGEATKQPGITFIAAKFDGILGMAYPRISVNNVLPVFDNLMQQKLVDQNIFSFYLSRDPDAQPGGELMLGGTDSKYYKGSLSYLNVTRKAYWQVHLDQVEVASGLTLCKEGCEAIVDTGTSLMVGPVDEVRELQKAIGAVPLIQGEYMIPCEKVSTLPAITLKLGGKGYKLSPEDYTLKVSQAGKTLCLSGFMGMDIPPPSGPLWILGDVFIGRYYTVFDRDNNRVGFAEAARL
T2 sequence (P04584 514-612 limits assumed): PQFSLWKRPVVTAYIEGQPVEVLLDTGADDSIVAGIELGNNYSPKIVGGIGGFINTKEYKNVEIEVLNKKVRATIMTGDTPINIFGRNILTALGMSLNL

Compound: COc1ccc(CNC(C(=O)NC2c3ccccc3CC2O)C(O)C(Cc2ccccc2)NC(=O)C(NC(=O)OCc2ccccc2)C(C)(C)C)cc1 [Example 2, 4(S)-(Benzyloxycarbonyl-L-tert-leucinoy)amino-3(S)-hydroxy-2(R)-(4-methoxybenzylamino)-5-phenyl-pentanoic acid 1 (S)-amino-2(R)-hydroxyindan-amide]
- IC50 [1]: 250 nM
- inhibition of endogenous proteinase renin (renin): does not inhibit
- Ki [2]: 9.5 nM
- inhibition of endogenous proteinase cathepsin D (cathepsin D): does not inhibit
- oral uptake [3]: excellent oral uptake
- Ki [4]: 50 nM
